Results from US20040067507A1, “Liver inflammation predictive genes” (priority 2002, published 2004).
Like-named read-outs stand apart in the source and are kept apart here.

System: Sprague Dawley rats Crl:CD
Assay type: in vivo, rat
From the text: In addition to the database described and utilized herein, other toxicology gene expression databases may be generated, and used to identify additional liver toxicity biomarkers, which may also be employed in the practice of the liver inflammation prediction methods of the invention. […] An example of compounds, dose levels, liver toxicity classifications and histopathology scores used in the Examples which follow are provided in Table 1. The compounds and dose levels are abbreviated in the Abbreviation Column. The Inflammation Score relates the histopathology liver inflammation, a score of “2” or higher indicates histopathology of increasing severity.
Identification of Correlating Genes: For the purpose of identifying candidate predictive genes, the database preferably includes histopathology scores for each animal which has been exposed to one or more agent(s). […] The scores are numerical scores that reflect the occurrence and severity of histopathological changes. These scores can be adjusted to have similar range to gene expression changes. […] Because the scores are numerical, they are suitable for use with a variety of statistical correlation and similarity measures.
Sprague Dawley rats Crl:CD from Charles River, Raleigh, N.C. were divided into treated rats that receive a specific concentration of the compound (see Table 1) and the control rats that only received the vehicle in which the compound is mixed (e.g., saline).
At specified timepoints (6 h, 24 h and 72 h) after administration (intraperitoneal route) of the compound, a set number of rats (usually 3 control and 3 treated) were euthanized and tissues collected. Each rat was heavily sedated with an overdose of CO2 by inhalation and a maximum amount of blood drawn. Exsanguination of the rat by this drawing of blood kills the rat. The method of collecting the tissues is very important and ensures preserving the quality of the mRNA in the tissues. The body of the rat was then opened up and prosectors rapidly removed the tissues (including liver) and immediately placed them into liquid nitrogen. […] The organs/tissues were then packaged into well-labeled plastic freezer quality bags and stored at −80 degrees until needed for isolation of the mRNA from a portion of the organ/tissue sample.
Correlation with Histopathology Scores: Histopathology scores for each animal (assigned on a compound-dose basis as indicated in Table 1) were entered with gene expression data by using the GeneSpring™ ‘Drawn Gene’ function. Correlations between inflammation histopathology scores and gene expression were conducted with the distance measures listed below: […]

[1] = 40 mg/kg i.p., 72 h, 1=no histopathology, 2 or higher=increasing severity
[2] = 160 mg/kg i.p., 72 h, 1=no histopathology, 2 or higher=increasing severity
[3] = 0.1 mg/kg i.p., 72 h, 1=no histopathology, 2 or higher=increasing severity
[4] = 0.4 mg/kg i.p., 72 h, 1=no histopathology, 2 or higher=increasing severity
[5] = Sprague Dawley Crl:CD, rat, in vivo, ip
[6] = 50 mg/kg i.p., 72 h, 1=no histopathology, 2 or higher=increasing severity
[7] = 200 mg/kg i.p., 72 h, 1=no histopathology, 2 or higher=increasing severity
[8] = 250 mg/kg i.p., 72 h, 1=no histopathology, 2 or higher=increasing severity
[9] = 1000 mg/kg i.p., 72 h, 1=no histopathology, 2 or higher=increasing severity
[10] = Sprague Dawley Crl:CD, rat, in vivo
[11] = 1.3 mg/kg i.p., 72 h, 1=no histopathology, 2 or higher=increasing severity
[12] = 5 mg/kg i.p., 72 h, 1=no histopathology, 2 or higher=increasing severity
[13] = 20 mg/kg i.p., 72 h, 1=no histopathology, 2 or higher=increasing severity
[14] = 80 mg/kg i.p., 72 h, 1=no histopathology, 2 or higher=increasing severity
[15] = 38 mg/kg i.p., 72 h, 1=no histopathology, 2 or higher=increasing severity
[16] = 150 mg/kg i.p., 72 h, 1=no histopathology, 2 or higher=increasing severity
[17] = 25 mg/kg i.p., 72 h, 1=no histopathology, 2 or higher=increasing severity
[18] = 100 mg/kg i.p., 72 h, 1=no histopathology, 2 or higher=increasing severity
[19] = 2 mg/kg i.p., 72 h, 1=no histopathology, 2 or higher=increasing severity
[20] = 8 mg/kg i.p., 72 h, 1=no histopathology, 2 or higher=increasing severity

`CCC(=O)O[C@H]1[C@H](O[C@@H]2[C@@H](C)[C@H](O[C@H]3C[C@@](C)(OC)[C@@H](O)[C@H](C)O3)[C@@H](C)C(=O)O[C@H](CC)[C@@](C)(O)[C@H](O)[C@@H](C)C(=O)[C@H](C)C[C@@]2(C)O)O[C@H](C)C[C@@H]1N(C)C` [erythromycin estolate] was tested, and the “Liver Inflammation” value (40 mg/kg i.p., 72 h) was “no”, the “Liver Necrosis” value (40 mg/kg i.p., 72 h) was “no” and the “Inflamm. Score” value [1] was 1. The “Necr. Score” value [1] was 1, the “Liver Inflammation” value (160 mg/kg i.p., 72 h) was “no” and the “Liver Necrosis” value (160 mg/kg i.p., 72 h) was “no”. The “Inflamm. Score” value [2] was 1 and the “Necr. Score” value [2] was 1.

With `C[C@]12CC[C@@H]3c4ccc(O)cc4CC[C@H]3[C@@H]1CC[C@@H]2O` [estradiol] the “Liver Inflammation” value (0.1 mg/kg i.p., 72 h) was “no”, the “Liver Necrosis” value (0.1 mg/kg i.p., 72 h) was “no” and the “Inflamm. Score” value [3] was 1. For the same compound, the “Necr. Score” value [3] was 1, the “Liver Inflammation” value (0.4 mg/kg i.p., 72 h) was “no” and the “Liver Necrosis” value (0.4 mg/kg i.p., 72 h) was “no”. For the same compound, the “Inflamm. Score” value [4] was 1 and the “Necr. Score” value [4] was 1.

`CCO` [ethanol] was tested, and the “Inflamm. Score” value [5] was 1, the “Necr. Score” value [5] was 1 and the “Liver Inflammation” value (rat, in vivo, ip) was “no”. The “Liver Necrosis” value (rat, in vivo, ip) was “no”.

`Nc1nc(O)c2ncn(COC(CO)CO)c2n1` [gancyclovir] was tested, and the “Liver Inflammation” value (50 mg/kg i.p., 72 h) was “no”, the “Liver Necrosis” value (50 mg/kg i.p., 72 h) was “no” and the “Inflamm. Score” value [6] was 1. The “Necr. Score” value [6] was 1, the “Liver Inflammation” value (200 mg/kg i.p., 72 h) was “no” and the “Liver Necrosis” value (200 mg/kg i.p., 72 h) was “no”. The “Inflamm. Score” value [7] was 1 and the “Necr. Score” value [7] was 1.

For `NC(=O)NO` [hydroxyurea], the “Liver Inflammation” value (250 mg/kg i.p., 72 h) was “no”, the “Liver Necrosis” value (250 mg/kg i.p., 72 h) was “no” and the “Inflamm. Score” value [8] was 1. The “Necr. Score” value [8] was 1, the “Liver Inflammation” value (1000 mg/kg i.p., 72 h) was “no” and the “Liver Necrosis” value (1000 mg/kg i.p., 72 h) was “no”. For the same compound, the “Inflamm. Score” value [9] was 1 and the “Necr. Score” value [9] was 1.

For `NNC(=O)c1ccncc1` [isoniazid], the “Liver Inflammation” value (50 mg/kg i.p., 72 h) was “no”, the “Liver Necrosis” value (50 mg/kg i.p., 72 h) was “no” and the “Inflamm. Score” value [6] was 1. The “Necr. Score” value [6] was 1, the “Liver Inflammation” value (200 mg/kg i.p., 72 h) was “no” and the “Liver Necrosis” value (200 mg/kg i.p., 72 h) was “no”. For the same compound, the “Inflamm. Score” value [7] was 1 and the “Necr. Score” value [7] was 1.

In the case of `CC(=O)N1CCN(c2ccc(OCC3COC(Cn4ccnc4)(c4ccc(Cl)cc4Cl)O3)cc2)CC1` (stereo not drawn) [ketoconazole], the “Inflamm. Score” value [10] is reported as 1, the “Necr. Score” value [10] is reported as 1 and the “Liver Inflammation” value (rat, in vivo) is reported as “no”. For the same compound, the “Liver Necrosis” value (rat, in vivo) was “no”.

`CN(Cc1cnc2nc(N)nc(N)c2n1)c1ccc(C(=O)N[C@@H](CCC(=O)O)C(=O)O)cc1` [methotrexate] was tested, and the “Liver Inflammation” value (1.3 mg/kg i.p., 72 h) was “no”, the “Liver Necrosis” value (1.3 mg/kg i.p., 72 h) was “no” and the “Inflamm. Score” value [11] was 1. For the same compound, the “Necr. Score” value [11] was 1, the “Liver Inflammation” value (5 mg/kg i.p., 72 h) was “no” and the “Liver Necrosis” value (5 mg/kg i.p., 72 h) was “no”. For the same compound, the “Inflamm. Score” value [12] was 1 and the “Necr. Score” value [12] was 1.

In the case of `C=CCN1CC[C@]23c4c5ccc(O)c4O[C@H]2C(=O)CC[C@@]3(O)[C@H]1C5` [naloxone], the “Inflamm. Score” value [10] is reported as 1, the “Necr. Score” value [10] is reported as 1 and the “Inflamm. Score” value [5] is reported as 1. For the same compound, the “Necr. Score” value [5] was 1, the “Liver Inflammation” value (rat, in vivo) was “no” and the “Liver Necrosis” value (rat, in vivo) was “no”. The “Liver Inflammation” value (rat, in vivo, ip) was “no” and the “Liver Necrosis” value (rat, in vivo, ip) was “no”.

With `CCC1(c2ccccc2)C(=O)NC(=O)NC1=O` [phenobarbital] the “Liver Inflammation” value (20 mg/kg i.p., 72 h) was “no”, the “Liver Necrosis” value (20 mg/kg i.p., 72 h) was “no” and the “Inflamm. Score” value [13] was 1. The “Necr. Score” value [13] was 1, the “Liver Inflammation” value (80 mg/kg i.p., 72 h) was “no” and the “Liver Necrosis” value (80 mg/kg i.p., 72 h) was “no”. For the same compound, the “Inflamm. Score” value [14] was 1 and the “Necr. Score” value [14] was 1.

For `NNc1ccccc1` [phenylhydrazine], the “Liver Inflammation” value (20 mg/kg i.p., 72 h) was “no”, the “Liver Necrosis” value (20 mg/kg i.p., 72 h) was “no” and the “Inflamm. Score” value [13] was 1. The “Necr. Score” value [13] was 1, the “Liver Inflammation” value (80 mg/kg i.p., 72 h) was “no” and the “Liver Necrosis” value (80 mg/kg i.p., 72 h) was “no”. For the same compound, the “Inflamm. Score” value [14] was 1 and the “Necr. Score” value [14] was 1.

In the case of `COc1ccc(C[C@H](N)C(=O)N[C@H]2[C@@H](O)[C@H](n3cnc4c(N(C)C)ncnc43)O[C@@H]2CO)cc1` [puromycin], the “Liver Inflammation” value (38 mg/kg i.p., 72 h) is reported as “no”, the “Liver Necrosis” value (38 mg/kg i.p., 72 h) is reported as “no” and the “Inflamm. Score” value [15] is reported as 1. The “Necr. Score” value [15] was 1, the “Liver Inflammation” value (150 mg/kg i.p., 72 h) was “no” and the “Liver Necrosis” value (150 mg/kg i.p., 72 h) was “no”. For the same compound, the “Inflamm. Score” value [16] was 1 and the “Necr. Score” value [16] was 1.

`C=C[C@H]1C[N@@]2CC[C@H]1C[C@@H]2[C@@H](O)c1ccnc2ccc(OC)cc12` [quinidine] was tested, and the “Liver Inflammation” value (25 mg/kg i.p., 72 h) was “no”, the “Liver Necrosis” value (25 mg/kg i.p., 72 h) was “no” and the “Inflamm. Score” value [17] was 1. The “Necr. Score” value [17] was 1, the “Liver Inflammation” value (100 mg/kg i.p., 72 h) was “no” and the “Liver Necrosis” value (100 mg/kg i.p., 72 h) was “no”. The “Inflamm. Score” value [18] was 1 and the “Necr. Score” value [18] was 1.

With `CN(C)[C@@H]1C(O)=C(C(N)=O)C(=O)[C@@]2(O)C(O)=C3C(=O)c4c(O)cccc4[C@@](C)(O)[C@H]3C[C@@H]12` [tetracycline] the “Inflamm. Score” value [10] was 1 and the “Liver Inflammation” value (rat, in vivo) was “no”.

In the case of `Cn1c(=O)c2[nH]cnc2n(C)c1=O` [theophylline], the “Inflamm. Score” value [10] is reported as 1, the “Necr. Score” value [10] is reported as 1 and the “Liver Inflammation” value (rat, in vivo) is reported as “no”. The “Liver Necrosis” value (rat, in vivo) was “no”.

In the case of gentamicin, the “Liver Inflammation” value (38 mg/kg i.p., 72 h) is reported as “no”, the “Liver Necrosis” value (38 mg/kg i.p., 72 h) is reported as “no” and the “Inflamm. Score” value [15] is reported as 1. For the same compound, the “Necr. Score” value [15] was 1, the “Liver Inflammation” value (150 mg/kg i.p., 72 h) was “no” and the “Liver Necrosis” value (150 mg/kg i.p., 72 h) was “no”. For the same compound, the “Inflamm. Score” value [16] was 1 and the “Necr. Score” value [16] was 1.

lipopolysaccharide was tested, and the “Liver Inflammation” value (2 mg/kg i.p., 72 h) was “no”, the “Liver Necrosis” value (2 mg/kg i.p., 72 h) was “no” and the “Inflamm. Score” value [19] was 1. For the same compound, the “Necr. Score” value [19] was 1, the “Liver Inflammation” value (8 mg/kg i.p., 72 h) was “yes” and the “Liver Necrosis” value (8 mg/kg i.p., 72 h) was “yes”. For the same compound, the “Inflamm. Score” value [20] was 2, the “Necr. Score” value [20] was 6 and the “liver necrosis or necrosis with inflammation” value (high dose) was “produced liver necrosis or necrosis with inflammation”. For the same compound, the “liver necrosis or necrosis with inflammation” value (low dose) was “not at the low dose”.
